US11053213B2, “Pharmaceutical compounds” (ALMAC DISCOVERY LIMITED, priority 2016, dated 2021)

These compounds were tested against USP19 (Homo sapiens (Human), UniProt O94966) (assay: USP19 activity assay (fluorescence polarisation, Ubiquitin-Lys-TAMRA substrate)). Details: full-length USP19 2.5 nM, 30 min pre-incubation, Ub substrate 500 nM; average of at least two duplicate experiments.
Assay type: biochemical

Sequence of USP19 (O94966 whole entry): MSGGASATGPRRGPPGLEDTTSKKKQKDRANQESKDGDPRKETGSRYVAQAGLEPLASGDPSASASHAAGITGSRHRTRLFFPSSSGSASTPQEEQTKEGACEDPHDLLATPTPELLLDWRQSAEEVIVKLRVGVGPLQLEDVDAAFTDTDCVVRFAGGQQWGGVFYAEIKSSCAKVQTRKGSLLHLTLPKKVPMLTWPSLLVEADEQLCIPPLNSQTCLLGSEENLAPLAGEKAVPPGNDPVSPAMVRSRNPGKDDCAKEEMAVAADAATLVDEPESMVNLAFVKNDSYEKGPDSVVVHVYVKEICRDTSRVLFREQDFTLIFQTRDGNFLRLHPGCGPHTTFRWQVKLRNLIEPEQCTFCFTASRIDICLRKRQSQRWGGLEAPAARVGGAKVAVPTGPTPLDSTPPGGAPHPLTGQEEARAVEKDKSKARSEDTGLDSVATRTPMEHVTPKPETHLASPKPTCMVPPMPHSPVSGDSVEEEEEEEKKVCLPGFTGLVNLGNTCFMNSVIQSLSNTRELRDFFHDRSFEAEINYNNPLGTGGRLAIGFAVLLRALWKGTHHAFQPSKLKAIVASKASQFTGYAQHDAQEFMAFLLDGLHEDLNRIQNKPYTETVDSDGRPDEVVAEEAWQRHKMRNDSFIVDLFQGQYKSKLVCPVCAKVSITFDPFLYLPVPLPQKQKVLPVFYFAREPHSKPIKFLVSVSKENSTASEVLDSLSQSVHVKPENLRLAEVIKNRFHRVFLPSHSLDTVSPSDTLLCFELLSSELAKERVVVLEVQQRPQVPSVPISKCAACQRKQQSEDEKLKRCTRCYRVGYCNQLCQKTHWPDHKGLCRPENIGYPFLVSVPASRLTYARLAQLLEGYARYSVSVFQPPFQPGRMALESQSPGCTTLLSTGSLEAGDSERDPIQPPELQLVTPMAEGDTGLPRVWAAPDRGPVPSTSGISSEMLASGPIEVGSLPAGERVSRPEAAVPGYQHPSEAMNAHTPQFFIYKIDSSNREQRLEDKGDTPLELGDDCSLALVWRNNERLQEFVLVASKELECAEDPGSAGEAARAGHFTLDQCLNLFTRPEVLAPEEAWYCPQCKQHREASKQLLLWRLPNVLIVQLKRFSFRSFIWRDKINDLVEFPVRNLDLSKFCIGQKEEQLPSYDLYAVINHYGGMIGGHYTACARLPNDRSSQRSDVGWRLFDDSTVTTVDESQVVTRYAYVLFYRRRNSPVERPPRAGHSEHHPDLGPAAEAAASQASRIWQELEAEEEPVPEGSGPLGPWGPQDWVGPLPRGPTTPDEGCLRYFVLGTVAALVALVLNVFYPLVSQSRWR

Compound | IC50 [µM]
C[C@H](CC1CCCCC1)C(=O)N1CCC(O)(Cn2cc(C(=O)N(C)C)c(-c3cccc(CO)c3)cc2=O)C2(CCCC2)C1 (stereo partly drawn) [Example 156, 1-((7-((R)-3-Cyclohexyl-2-methylpropanoyl)-10-hydroxy-7-azaspiro[4.5]decan-10-yl)methyl)-4-(3-(hydroxymethyl)phenyl)-N,N-dimethyl-6-oxo-1,6-dihydropyridine-3-carboxamide] | < 0.5
CN(C)C(=O)c1cn(CC2(O)CCN(C(=O)C(O)CC3CCCCC3)CC23CCCC3)c(=O)cc1-c1ccccc1 (centres unmarked) [Example 157, 1-((7-(3-Cyclohexyl-2-hydroxypropanoyl)-10-hydroxy-7-azaspiro[4.5]decan-10-yl)methyl)-N,N-dimethyl-6-oxo-4-phenyl-1,6-dihydropyridine-3-carboxamide] | < 0.5
CC(CN1CCCCC1)C(=O)N1CCC(O)(Cn2cc(C(=O)N(C)C)c(-c3ccccc3)cc2=O)C2(CCCC2)C1 (centres unmarked) [Example 158, 1-((10-Hydroxy-7-(2-methyl-3-(piperidin-1-yl)propanoyl)-7-azaspiro[4.5]decan-10-yl)methyl)-N,N-dimethyl-6-oxo-4-phenyl-1,6-dihydropyridine-3-carboxamide] | 50 to 250
C[C@H](CC1CCCCC1)C(=O)N1CCC(O)(Cn2cnc(-c3cccc(CN)c3)cc2=O)C(C)(C)C1 (stereo partly drawn) [Example 159, 6-(3-(Aminomethyl)phenyl)-3-((1-((R)-3-cyclohexyl-2-methylpropanoyl)-4-hydroxy-3,3-dimethylpiperidin-4-yl)methyl)pyrimidin-4(3H)-one] | 0.5 to 5
COC[C@H](CC1CCCCC1)C(=O)N1CC[C@@](O)(Cn2cc(C(=O)N(C)C)c(-c3ccccc3)cc2=O)C(C)(C)C1 [Example 160, 1-(((S)-1-((S)-3-Cyclohexyl-2-(methoxymethyl)propanoyl)-4-hydroxy-3,3-dimethylpiperidin-4-yl)methyl)-N,N-dimethyl-6-oxo-4-phenyl-1,6-dihydropyridine-3-carboxamide] | < 0.5
C[C@H](CC1CCCCC1)C(=O)N1CCC(O)(Cn2cc(C(=O)N(C)C)c(-c3ccccc3CN)cc2=O)C2(CCCC2)C1 (stereo partly drawn) [Example 161, 4-(2-(Aminomethyl)phenyl)-1-((7-((R)-3-cyclohexyl-2-methylpropanoyl)-10-hydroxy-7-azaspiro[4.5]decan-10-yl)methyl)-N,N-dimethyl-6-oxo-1,6-dihydropyridine-3-carboxamide] | 5 to 50
C[C@H](CC1CCCCC1)C(=O)N1CCC(O)(Cn2cc(C(=O)N(C)C)c(-c3ccc(CO)cc3)cc2=O)C2(CCCC2)C1 (stereo partly drawn) [Example 162, 1-((7-((R)-3-Cyclohexyl-2-methylpropanoyl)-10-hydroxy-7-azaspiro[4.5]decan-10-yl)methyl)-4-(4-(hydroxymethyl)phenyl)-N,N-dimethyl-6-oxo-1,6-dihydropyridine-3-carboxamide] | < 0.5
CC(CN1CCOCC1)C(=O)N1CCC(O)(Cn2cc(C(=O)N(C)C)c(-c3ccccc3)cc2=O)C2(CCCC2)C1 (centres unmarked) [Example 163, 1-((10-Hydroxy-7-(2-methyl-3-morpholinopropanoyl)-7-azaspiro[4.5]decan-10-yl)methyl)-N,N-dimethyl-6-oxo-4-phenyl-1,6-dihydropyridine-3-carboxamide] | 5 to 50
CN(C)C(=O)c1cn(C[C@]2(O)CCN(C(=O)[C@H](CCO)CC3CCCCC3)CC2(C)C)c(=O)cc1-c1ccccc1 [Example 164, 1-(((S)-1-((S)-2-(Cyclohexylmethyl)-4-hydroxybutanoyl)-4-hydroxy-3,3-dimethylpiperidin-4-yl)methyl)-N,N-dimethyl-6-oxo-4-phenyl-1,6-dihydropyridine-3-carboxamide] | < 0.5
CN(C)C(=O)c1cn(C[C@@]2(O)CCN(C(=O)[C@H](CCO)CC3CCCCC3)CC2(C)C)c(=O)cc1-c1ccccc1 [Example 165, 1-(((R)-1-((S)-2-(Cyclohexylmethyl)-4-hydroxybutanoyl)-4-hydroxy-3,3-dimethylpiperidin-4-yl)methyl)-N,N-dimethyl-6-oxo-4-phenyl-1,6-dihydropyridine-3-carboxamide] | 5 to 50
CN(C)C(=O)c1cn(C[C@]2(O)CCN(C(=O)[C@H](CO)CC3CCC3)CC2(C)C)c(=O)cc1-c1ccccc1 [Example 166, 1-(((S)-1-((S)-3-Cyclobutyl-2-(hydroxymethyl)propanoyl)-4-hydroxy-3,3-dimethylpiperidin-4-yl)methyl)-N,N-dimethyl-6-oxo-4-phenyl-1,6-dihydropyridine-3-carboxamide] | < 0.5
C[C@H](CC1CCCCC1)C(=O)N1CCC(O)(Cn2cc(C(=O)N3CCOCC3)c(-c3ccccc3)cc2=O)C(C)(C)C1 (stereo partly drawn) [Example 168, 1-((1-((R)-3-Cyclohexyl-2-methylpropanoyl)-4-hydroxy-3,3-dimethylpiperidin-4-yl)methyl)-5-(morpholine-4-carbonyl)-4-phenylpyridin-2(1H)-one] | < 0.5
CC(=O)N1CCN(C(=O)c2cn(CC3(O)CCN(C(=O)[C@H](C)CC4CCCCC4)CC3(C)C)c(=O)cc2-c2ccccc2)CC1 (stereo partly drawn) [Example 169, 5-(4-Acetylpiperazine-1-carbonyl)-1-((1-((R)-3-cyclohexyl-2-methylpropanoyl)-4-hydroxy-3,3-dimethylpiperidin-4-yl)methyl)-4-phenylpyridin-2(1H)-one] | < 0.5
C[C@H](CC1CCCCC1)C(=O)N1CCC(O)(Cn2cc(C(=O)N3CCN(C)CC3)c(-c3ccccc3)cc2=O)C(C)(C)C1 (stereo partly drawn) [Example 170, 1-((1-((R)-3-Cyclohexyl-2-methylpropanoyl)-4-hydroxy-3,3-dimethylpiperidin-4-yl)methyl)-5-(4-methylpiperazine-1-carbonyl)-4-phenylpyridin-2(1H)-one] | < 0.5
CC(CC(=O)N1CCC(O)(Cn2cc(C(=O)N(C)C)c(-c3ccccc3)cc2=O)C2(CCCC2)C1)C(F)(F)F (centres unmarked) [Example 171, 1-((10-Hydroxy-7-(4,4,4-trifluoro-3-methylbutanoyl)-7-azaspiro[4.5]decan-10-yl)methyl)-N,N-dimethyl-6-oxo-4-phenyl-1,6-dihydropyridine-3-carboxamide] | 50 to 250
CN(C)C(=O)c1cn(CC2(O)CCN(C(=O)CCC(F)(F)F)CC23CCCC3)c(=O)cc1-c1ccccc1 (centres unmarked) [Example 172, 1-((10-Hydroxy-7-(4,4,4-trifluorobutanoyl)-7-azaspiro[4.5]decan-10-yl)methyl)-N,N-dimethyl-6-oxo-4-phenyl-1,6-dihydropyridine-3-carboxamide] | 5 to 50
CN(C)C(=O)c1cn(CC2(O)CCN(C(=O)CCC3CCOC3)CC23CCCC3)c(=O)cc1-c1ccccc1 (centres unmarked) [Example 173, 1-((10-Hydroxy-7-(3-(tetrahydrofuran-3-yl)propanoyl)-7-azaspiro[4.5]decan-10-yl)methyl)-N,N-dimethyl-6-oxo-4-phenyl-1,6-dihydropyridine-3-carboxamide] | 50 to 250
CN(C)C(=O)c1cn(CC2(O)CCN(C(=O)[C@@H]3C[C@@H]3c3ccccc3)CC23CCCC3)c(=O)cc1-c1ccccc1 (stereo partly drawn) [Example 174, 1-((10-Hydroxy-7-((1R,2S)-2-phenylcyclopropane-1-carbonyl)-7-azaspiro[4.5]decan-10-yl)methyl)-N,N-dimethyl-6-oxo-4-phenyl-1,6-dihydropyridine-3-carboxamide] | < 0.5
CN(C)C(=O)c1cn(CC2(O)CCN(C(=O)C3CC3)CC23CCCC3)c(=O)cc1-c1ccccc1 (centres unmarked) [Example 175, 1-((7-(Cyclopropanecarbonyl)-10-hydroxy-7-azaspiro[4.5]decan-10-yl)methyl)-N,N-dimethyl-6-oxo-4-phenyl-1,6-dihydropyridine-3-carboxamide] | 50 to 250
CN(C)C(=O)c1cn(CC2(O)CCN(C(=O)C3(C)CCCCC3)CC23CCCC3)c(=O)cc1-c1ccccc1 (centres unmarked) [Example 176, 1-((10-Hydroxy-7-(1-methylcyclohexane-1-carbonyl)-7-azaspiro[4.5]decan-10-yl)methyl)-N,N-dimethyl-6-oxo-4-phenyl-1,6-dihydropyridine-3-carboxamide] | 5 to 50
CN(C)C(=O)c1cn(CC2(O)CCN(C(=O)C3CCC(F)C3)CC23CCCC3)c(=O)cc1-c1ccccc1 (centres unmarked) [Example 177, 1-((7-(3-Fluorocyclopentane-1-carbonyl)-10-hydroxy-7-azaspiro[4.5]decan-10-yl)methyl)-N,N-dimethyl-6-oxo-4-phenyl-1,6-dihydropyridine-3-carboxamide] | 50 to 250
CN(C)C(=O)c1cn(CC2(O)CCN(C(=O)C3(CC(F)F)CC3)CC23CCCC3)c(=O)cc1-c1ccccc1 (centres unmarked) [Example 178, 1-((7-(1-(2,2-Difluoroethyl)cyclopropane-1-carbonyl)-10-hydroxy-7-azaspiro[4.5]decan-10-yl)methyl)-N,N-dimethyl-6-oxo-4-phenyl-1,6-dihydropyridine-3-carboxamide] | 50 to 250
CN(C)C(=O)c1cn(CC2(O)CCN(C(=O)C34CCC(CC3)C4)CC23CCCC3)c(=O)cc1-c1ccccc1 (centres unmarked) [Example 179, 1-((7-(Bicyclo[2.2.1]heptane-1-carbonyl)-10-hydroxy-7-azaspiro[4.5]decan-10-yl)methyl)-N,N-dimethyl-6-oxo-4-phenyl-1,6-dihydropyridine-3-carboxamide] | 50 to 250
CN(C)C(=O)c1cn(CC2(O)CCN(C(=O)C[C@@H](c3ccccc3)C(F)F)CC23CCCC3)c(=O)cc1-c1ccccc1 (stereo partly drawn) [Example 180, 1-((7-((S)-4,4-Difluoro-3-phenylbutanoyl)-10-hydroxy-7-azaspiro[4.5]decan-10-yl)methyl)-N,N-dimethyl-6-oxo-4-phenyl-1,6-dihydropyridine-3-carboxamide] | 5 to 50
CN(C)C(=O)c1cn(CC2(O)CCN(C(=O)C[C@H](c3ccccc3)C(F)F)CC23CCCC3)c(=O)cc1-c1ccccc1 (stereo partly drawn) [Example 181, 1-((7-((R)-4,4-Difluoro-3-phenylbutanoyl)-10-hydroxy-7-azaspiro[4.5]decan-10-yl)methyl)-N,N-dimethyl-6-oxo-4-phenyl-1,6-dihydropyridine-3-carboxamide] | 0.5 to 5
CCOCCC(=O)N1CCC(O)(Cn2cc(C(=O)N(C)C)c(-c3ccccc3)cc2=O)C2(CCCC2)C1 (centres unmarked) [Example 182, 1-((7-(3-Ethoxypropanoyl)-10-hydroxy-7-azaspiro[4.5]decan-10-yl)methyl)-N,N-dimethyl-6-oxo-4-phenyl-1,6-dihydropyridine-3-carboxamide] | 5 to 50
